# Patent US20140356383A1, “ADMINISTRATION OF AN ANTI-GCC ANTIBODY-DRUG CONJUGATE AND A DNA DAMAGING AGENT IN THE TREATMENT OF CANCER” (priority 2013, published 2014)
# Columns and labels:
# HT 29 GCC #18 cells = test: Direct cytotoxicity assay (WST), HT 29 GCC #18 cells; type: cell-based, human; details: auristatin ADCs
# HT29-GCC#5 s.c. tumors = test: Pilot efficacy studies in HT29-GCC#5 s.c. tumors; type: in vivo; details: 150 μg/kg on a q3d×5 schedule, mice bearing HT29-GCC#5 tumors
# Experimental: Studies were performed to determine efficacious conjugates and dosage regimens in mice bearing HT29-GCC#5 tumors. Mice were dosed with single or multiple doses. These studies determined that there was toxicity at too frequent dosing at higher levels of toxin conjugate (e.g., 150 μg/kg 5F9vcMMAF on a q3d×5 schedule). Another study determined that q14d×5 schedule was too infrequent in this model to allow some toxin conjugates to show significant efficacy vs. controls.
# 293 GCC#2 tumors = test: Efficacy study with auristatin conjugates in 293 GCC#2 tumors, q7d×4; type: in vivo, SCID mice; details: for T/C: treatment/control
# Experimental: 293 GCC#2 tumor-bearing SCID mice were treated with 5F9 conjugates with vc MMAE, vcMMAF or mcMMAF at three doses in comparison with 209 conjugates of these toxins or with free toxins or vehicle control. Doses were administered iv on a q7d×4 schedule. Tumors were harvested at days 3, 7, 10, 13 and 17. […] Table 18 provides a summary of the results (TGI=tumor growth inhibition, T/C=treatment/control, TGD=tumor growth delay, CR/PR=complete response/partial response; p value=measure to judge statistical significance, NS=not significant).
# 293-GCC#2 tumors = test: PK/PD study (phospho-histone H3) in 293-GCC#2 tumor bearing mice; type: in vivo
# Excerpt: Phospho-histone H3 was detected by antibody (Upstate Biotechnology, now Millipore, Billerica, Mass.) staining of paraffin embedded sections of tumors.
# 293-GCC#2 s.c. tumors = test: Efficacy study with 5F9vcMMAF and 5F9-DMx in 293-GCC#2 s.c. tumors, q14d×5; type: in vivo; details: 293-GCC#2 bearing SCID mice, 75 and 150 μg/kg toxin
# Experimental: 5F9-SPDB-DM4, 5F9-SMCC-DM1 and 5F9vcMMAF were tested for efficacy in the 293-GCC#2 tumor model at two doses (75 μg/kg and 150 […] toxin), on a q14d×5 schedule. Specifically, this study included vehicle-treated control, Sc209-DM1 (150 μg/kg DM1 eq), Sc209-DM4 (150 μg/kg DM4 eq), Sc209-vcMMAF (150 μg/kg MMAF eq), 5F9-DM1 (150 μg/kg DM1 eq), 5F9-DM1 (75 μg/kg DM1 eq), 5F9-DM4 (150 μg/kg DM4 eq), 5F9-DM4 (75 μg/kg DM4 eq), 5F9-vcMMAF (150 μg/kg MMAF eq), and 5F9-vcMMAF (75 μg/kg MMAF eq). Taconic female mice bearing 293-GCC#2 cells (10 mice per group) were used.
# FIG. 1 depicts tumor growth in 293-GCC#2 bearing SCID mice treated with 5F9vc-MMAF, -DM1, and -DM4 on a q14d schedule. […] Therefore at these doses and schedules, 5F9-SPDB-DM4 had the greatest efficacious differential from its control conjugate.
substance,measurement,setting,value
5F9-vcMMAF: 5F9 anti-GCC antibody conjugated with mc-vc-MMAF,LD 50 (nM),HT 29 GCC #18 cells,">10,000 nM"
same,toxicity at too frequent dosing,HT29-GCC#5 s.c. tumors,toxicity
same,TGI,293 GCC#2 tumors; 37.5 μg/kg iv q7d×4,65.2
same,T/C,293 GCC#2 tumors; 37.5 μg/kg iv q7d×4,0.35
same,TGD,"293 GCC#2 tumors; 37.5 μg/kg iv q7d×4, tumor growth delay",7.1
same,TGI,293 GCC#2 tumors; 75 μg/kg iv q7d×4,88.5
same,T/C,293 GCC#2 tumors; 75 μg/kg iv q7d×4,0.12
same,TGI,293 GCC#2 tumors; 150 μg/kg iv q7d×4,97
same,T/C,293 GCC#2 tumors; 150 μg/kg iv q7d×4,0.03
same,Average % Tumor cells pH 3 positive,"293-GCC#2 tumors; single iv dose 75 μg/kg, 1 hr",4.235%
same,Average % Tumor cells pH 3 positive,"293-GCC#2 tumors; single iv dose 75 μg/kg, 4 hr",4.184%
same,Average % Tumor cells pH 3 positive,"293-GCC#2 tumors; single iv dose 75 μg/kg, 8 hr",4.93%
same,Average % Tumor cells pH 3 positive,"293-GCC#2 tumors; single iv dose 75 μg/kg, 24 hr",20.22%
same,Average % Tumor cells pH 3 positive,"293-GCC#2 tumors; single iv dose 75 μg/kg, 48 hr",9.921%
same,Average % Tumor cells pH 3 positive,"293-GCC#2 tumors; single iv dose 75 μg/kg, 96 hr",10.38%
same,Average % Tumor cells pH 3 positive,"293-GCC#2 tumors; single iv dose 150 μg/kg, 1 hr",3.466%
same,Average % Tumor cells pH 3 positive,"293-GCC#2 tumors; single iv dose 150 μg/kg, 4 hr",4.417%
same,Average % Tumor cells pH 3 positive,"293-GCC#2 tumors; single iv dose 150 μg/kg, 8 hr",8.594%
same,Average % Tumor cells pH 3 positive,"293-GCC#2 tumors; single iv dose 150 μg/kg, 24 hr",21.54%
same,Average % Tumor cells pH 3 positive,"293-GCC#2 tumors; single iv dose 150 μg/kg, 48 hr",15.16%
same,Average % Tumor cells pH 3 positive,"293-GCC#2 tumors; single iv dose 150 μg/kg, 96 hr",11.12%
same,"efficacy (tumor growth, FIG. 1)",293-GCC#2 s.c. tumors,the most efficacious
